Results taken from US20200246485A1, “METHOD FOR GENERATING A DIHYDROMYRICETIN (DHM) FORMULATION” (82 LABS INC, priority 2019, published 2020).
In brackets after ≈: the same amount, converted by molar mass. Where two headings read alike, the source gives them in different places.

Columns and labels:
DHM solubility in water = format: physicochemical
[1] = at 25° C.; background; cited from earlier work
physchem = conditions: 25° C.
[2] = in words; cited from earlier work
[3] = cited from earlier work

Compound `O=C1c2c(O)cc(O)cc2O[C@H](c2cc(O)c(O)c(O)c2)[C@H]1O` [DHM, (2R,3R)-3,5,7-trihydroxy-2-(3,4,5-trihydroxyphenyl)-2,3-dihydrochromen-4-one] has a solubility (DHM solubility in water; 100° C. (hot water)) of 15.5 mg/mL (≈ 48400 µM), a solubility (DHM solubility in water; water, 25 °C, water, 25° C. (room temperature), read-out: Solubility) of 0.7 mg/mL (≈ 2190 µM) and a solubility (DHM solubility in water; water, 100 °C, water, 100° C. (hot water), read-out: Solubility) of 16 mg/mL (≈ 50000 µM). The solubility [1] was 0.2 mg/mL (≈ 625 µM) and the solubility (physchem) was 0.7 mg/mL (≈ 2190 µM).
In the case of `OC[C@H]1O[C@H](O[C@]2(CCl)O[C@H](CCl)[C@@H](O)[C@@H]2O)[C@H](O)[C@@H](O)[C@H]1Cl` [sucralose], the solubility in water [2] is given as “freely soluble”.
For `OC[C@H]1O[C@@H]2O[C@H]3[C@H](O)[C@@H](O)[C@@H](O[C@H]4[C@H](O)[C@@H](O)[C@@H](O[C@H]5[C@H](O)[C@@H](O)[C@@H](O[C@H]6[C@H](O)[C@@H](O)[C@@H](O[C@H]7[C@H](O)[C@@H](O)[C@@H](O[C@H]1[C@H](O)[C@H]2O)O[C@@H]7CO)O[C@@H]6CO)O[C@@H]5CO)O[C@@H]4CO)O[C@@H]3CO` [α-Cyclodextrin, α-cyclodextrin], the “pKa value (25° C.)” value [3] is listed as 12.331.
In the case of `OC[C@H]1O[C@@H]2O[C@H]3[C@H](O)[C@@H](O)[C@@H](O[C@H]4[C@H](O)[C@@H](O)[C@@H](O[C@H]5[C@H](O)[C@@H](O)[C@@H](O[C@H]6[C@H](O)[C@@H](O)[C@@H](O[C@H]7[C@H](O)[C@@H](O)[C@@H](O[C@H]8[C@H](O)[C@@H](O)[C@@H](O[C@H]1[C@H](O)[C@H]2O)O[C@@H]8CO)O[C@@H]7CO)O[C@@H]6CO)O[C@@H]5CO)O[C@@H]4CO)O[C@@H]3CO` [β-Cyclodextrin, β-cyclodextrin], the “pKa value (25° C.)” value [3] is listed as 12.202.
